Columns and labels:
[1] = system: MCF7 adenocarcinoma cell line; assay: Cell proliferation studies in MCF7 cells (ATP-Lite, 10 days); format: cell-based; conditions: Homo sapiens, 240 h, read-out: PROLIFERATION_CTG_MCF7 IC50
Experimental: Cell Proliferation Studies in MCF7 Cells
Cell proliferation studies were conducted in MCF7 adenocarcinoma cell line. Cells were maintained in DMEM (Coming, Catalog #: 10-013-CV) supplemented with 10% v/v FBS (Gibco, Catalog #: 26140-079), 1% v/v Penicillin Streptomycin (Gibco, Catalog #15140-122) Cells were seeded in 384-well plates at a density of 100 or 200 cells/well. Compounds dissolved in DMSO were plated in quadruplicate using a digital dispenser (D300E, Tecan) and tested on a 9-point 3-fold serial dilution. Cells were incubated for 10 days in a 37° C. active humidified incubator at 5% CO2. A media exchange and second compound addition were performed on day 5. Cell viability was measured using the ATP-Lite 1-Step Luminescence reagent (Perkin Elmer, Catalog #: 6016731) as per manufacturer's instructions. Luminescence signal was measured with a multimode plate reader (Envision 2105, Perkin Elmer). Raw data files were imported to Dotmatics Screening Ultra for IC50 analysis. Luminescence values were normalized to both background and DMSO controls to obtain a percentage of viable cells relative to DMSO vehicle control.

CDK4/Cyclin D1 = CDK4/Cyclin D1 (Homo sapiens (Human), UniProt P11802); assay: CDK4/CyclinD1 enzymatic activity assay (TR-FRET); format: biochemical; conditions: ATP 2 mM, read-out: CDK4_D1 IC50
Experimental: CDK4/CyclinD1 Enzymatic Activity Assay
The inhibitory activity of compounds was evaluated in vitro using TR-FRET assay with white 384-well low volume microplate (Greiner Bio-One). CDK4/Cyclin D1 catalyzed phosphorylation of peptide in the presence and absence of compounds was measured. IC50 determination. Recombinant protein complex CDK4/Cyclin D1, expressed from insect cell, was purchased from ProQinase. Testing compounds were dissolved in DMSO at 0.1 mM and tested in 9-dose IC50 mode. The reaction mixture was prepared by mixing CDK4/CyclinD1 (1 nM final), ULight-4E-BP1 (100 nM final, Perkinelmer, TRF0128-D), and ATP (2 mM final) in assay buffer (20 mM of HEPES pH 7.4, 1 mM of EGTA, 0.05% BSA, 0.005% Tween 20, and 1 mM TCEP). The compound of interest in DMSO was added to each well in 3-fold serial dilution by dispenser (TECAN D300E). After 20 minutes preincubation at room temperature, MgCl2 (10 mM final) was added to initiate the reaction. Following a 60 minutes incubation at 37° C., the reaction was stopped by addition of 2 μL of quenching buffer consisting of Lance detection buffer (Perkinelmer CR97-100C), 2 nM LANCE Ultra Europium-anti-P-4E-BP1 (Perkinelmer, TRF0216-D), 10 mM EDTA, and incubate at room temperature for additional 60 minutes in dark. The reaction signal was measured by Envision multimode plate reader (PerkinElmer, 2102-0010). IC50 values were determined by fitting the data to the standard 4 parameters with Hill Slope using GraphPad Prism software.

CDK4/Cyclin D1, sequence (P11802 whole entry): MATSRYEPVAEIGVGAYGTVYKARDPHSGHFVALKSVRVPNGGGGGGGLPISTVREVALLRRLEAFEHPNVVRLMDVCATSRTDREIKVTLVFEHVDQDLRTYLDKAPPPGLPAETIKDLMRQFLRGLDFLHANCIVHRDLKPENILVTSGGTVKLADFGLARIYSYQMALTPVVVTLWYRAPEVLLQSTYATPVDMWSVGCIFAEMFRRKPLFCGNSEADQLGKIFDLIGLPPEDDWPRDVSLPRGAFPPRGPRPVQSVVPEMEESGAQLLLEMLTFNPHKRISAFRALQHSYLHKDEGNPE
CDK4/Cyclin D1, sequence (P24385 whole entry partner): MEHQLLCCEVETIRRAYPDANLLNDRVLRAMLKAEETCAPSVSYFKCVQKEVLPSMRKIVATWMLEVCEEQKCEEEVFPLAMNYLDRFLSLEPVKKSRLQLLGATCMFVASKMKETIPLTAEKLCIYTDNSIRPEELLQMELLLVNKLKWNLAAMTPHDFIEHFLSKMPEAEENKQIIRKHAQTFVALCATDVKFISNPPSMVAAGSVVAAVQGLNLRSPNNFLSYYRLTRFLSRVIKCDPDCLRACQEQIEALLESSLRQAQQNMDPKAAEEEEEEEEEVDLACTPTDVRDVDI

Structure (SMILES)	IC50 [1] [nM]	IC50 (CDK4/Cyclin D1) [nM]
Cc1nc2cc(-c3nc(Nc4ccc(N5CCN(C)CC5)cn4)ncc3F)sc2n1C1CCCC1 [Example 13, 4-(3-Cyclopentyl-2-methyl-3H-thieno[2,3-d]imidazol-5-yl)-5-fluoro-N-(5-(4-methylpiperazin-1-yl)pyridin-2-yl)pyrimidin-2-amine]	20 to 200	≤ 20
CCN1CCN(c2ccc(Nc3ncc(F)c(-c4cc5nccc(C(C)C)c5s4)n3)nc2)CC1 [Example 14, N-[5-(4-Ethylpiperazin-1-yl)pyridin-2-yl]-5-fluoro-4-(7-propan-2-ylthieno[3,2-b]pyridin-2-yl)pyrimidin-2-amine]	20 to 200	≤ 20
CCN1CCN(c2ccc(Nc3ncc(F)c(-c4sc5c(C6CCCC6)ccnc5c4Cl)n3)nc2)CC1 [Example 16, 4-(3-Chloro-7-cyclopentylthieno[3,2-b]pyridin-2-yl)-N-[5-(4-ethylpiperazin-1-yl)pyridin-2-yl]-5-fluoropyrimidin-2-amine]	20 to 200	≤ 20
CCN1CC2(C1)CN(c1ccc(Nc3ncc(F)c(-c4cc5nccc(C(C)(O)C(F)(F)F)c5s4)n3)nc1)C2 (stereo not drawn) [Example 18, 2-[2-[2-[[5-(6-Ethyl-2,6-diazaspiro[3.3]heptan-2-yl)pyridin-2-yl]amino]-5-fluoropyrimidin-4-yl]thieno[3,2-b]pyridin-7-yl]-1,1,1-trifluoropropan-2-ol]	20 to 200	20 to 200
CCN1CCN(Cc2ccc(Nc3ncc(F)c(-c4cc5nccc(C(C)C)c5s4)n3)nc2)CC1 [Example 19, N-[5-[(4-Ethylpiperazin-1-yl)methyl]pyridin-2-yl]-5-fluoro-4-(7-propan-2-ylthieno[3,2-b]pyridin-2-yl)pyrimidin-2-amine]	200 to 2000	20 to 200
CCN1CCC(c2ccc(Nc3ncc(F)c(-c4sc5c(C6CCCC6)ccnc5c4Cl)n3)nc2)CC1 [Example 20, 4-(3-Chloro-7-cyclopentylthieno[3,2-b]pyridin-2-yl)-N-[5-(1-ethylpiperidin-4-yl)pyridin-2-yl]-5-fluoropyrimidin-2-amine]	20 to 200	≤ 20
CCN1CCN(Cc2ccc(Nc3ncc(F)c(-c4sc5c(C6CCCC6)ccnc5c4C)n3)nc2)CC1 [Example 22, 4-(7-Cyclopentyl-3-methylthieno[3,2-b]pyridin-2-yl)-N-(5-((4-ethylpiperazin-1-yl)methyl)pyridin-2-yl)-5-fluoropyrimidin-2-amine]	200 to 2000	20 to 200
CCN1CCN(c2ccc(Nc3ncc(F)c(-c4cc5nccc(C6CCCC6)c5s4)n3)nc2)CC1 [Example 24, 4-(7-Cyclopentylthieno[3,2-b]pyridin-2-yl)-N-[5-(4-ethylpiperazin-1-yl)pyridin-2-yl]-5-fluoropyrimidin-2-amine]	200 to 2000	20 to 200
CCN1CCN(Cc2ccc(Nc3ncc(F)c(-c4cc5nccc(C(C)(O)C(F)(F)F)c5s4)n3)nc2)CC1 (stereo not drawn) [Example 25, 2-[2-[2-[[5-[(4-Ethylpiperazin-1-yl)methyl]pyridin-2-yl]amino]-5-fluoropyrimidin-4-yl]thieno[3,2-b]pyridin-7-yl]-1,1,1-trifluoropropan-2-ol]	20 to 200	20 to 200
Cc1c(-c2nc(Nc3ccc(C4CCN(C)CC4)cn3)ncc2F)sc2c(C3CCCC3)ccnc12 [Example 26, 4-(7-Cyclopentyl-3-methylthieno[3,2-b]pyridin-2-yl)-5-fluoro-N-(5-(1-methylpiperidin-4-yl)pyridin-2-yl)pyrimidin-2-amine]	20 to 200	≤ 20
CCN1CCN(Cc2ccc(Nc3ncc(F)c(-c4cc5nccc(C(C)(C)O)c5s4)n3)nc2)CC1 [Example 27, 2-[2-[2-[[5-[(4-Ethylpiperazin-1-yl)methyl]pyridin-2-yl]amino]-5-fluoropyrimidin-4-yl]thieno[3,2-b]pyridin-7-yl]propan-2-ol]	200 to 2000	20 to 200
Cc1c(-c2nc(Nc3ccc(N4CCN(C)CC4)cn3)ncc2F)sc2c(C3CCCC3)ccnc12 [Example 28, 4-(7-Cyclopentyl-3-methylthieno[3,2-b]pyridin-2-yl)-5-fluoro-N-(5-(4-methylpiperazin-1-yl)pyridin-2-yl)pyrimidin-2-amine]	200 to 2000	20 to 200
CCN1CCN(c2ccc(Nc3ncc(F)c(-c4cc5nccc(C(C)(O)C(F)(F)F)c5s4)n3)nc2)CC1 (stereo not drawn) [Example 29, 2-[2-[2-[[5-(4-Ethylpiperazin-1-yl)pyridin-2-yl]amino]-5-fluoropyrimidin-4-yl]thieno[3,2-b]pyridin-7-yl]-1,1,1-trifluoropropan-2-ol]	20 to 200	20 to 200
CCN1CCN(c2ccc(Nc3ncc(F)c(-c4sc5c(C6CCCC6)ccnc5c4C)n3)nc2)CC1 [Example 31, 4-(7-Cyclopentyl-3-methylthieno[3,2-b]pyridin-2-yl)-N-(5-(4-ethylpiperazin-1-yl)pyridin-2-yl)-5-fluoropyrimidin-2-amine]	200 to 2000	20 to 200
Cc1c(-c2nc(Nc3ccc(N4CC5(CNC5)C4)cn3)ncc2F)sc2c(C3CCCC3)ccnc12 [Example 32, N-(5-(2,6-Diazaspiro[3.3]heptan-2-yl)pyridin-2-yl)-4-(7-cyclopentyl-3-methylthieno[3,2-b]pyridin-2-yl)-5-fluoropyrimidin-2-amine]	200 to 2000	≤ 20
CCN1CCN(Cc2ccc(Nc3ncc(F)c(-c4cc5nccc(C6CCCC6)c5s4)n3)nc2)CC1 [Example 33, 4-(7-Cyclopentylthieno[3,2-b]pyridin-2-yl)-N-[5-[(4-ethylpiperazin-1-yl)methyl]pyridin-2-yl]-5-fluoropyrimidin-2-amine]	200 to 2000	≤ 20
CN1CCC(c2ccc(Nc3ncc(F)c(-c4cc5nccc(C6CCCC6)c5s4)n3)nc2)CC1 [Example 34, 4-(7-Cyclopentylthieno[3,2-b]pyridin-2-yl)-5-fluoro-N-(5-(1-methylpiperidin-4-yl)pyridin-2-yl)pyrimidin-2-amine]	20 to 200	≤ 20
Fc1cnc(Nc2ccc(N3CCNCC3)cn2)nc1-c1cc2nccc(C3CCCC3)c2s1 [Example 36, 4-(7-Cyclopentylthieno[3,2-b]pyridin-2-yl)-5-fluoro-N-(5-piperazin-1-ylpyridin-2-yl)pyrimidin-2-amine]	200 to 2000	20 to 200
CN1CCN(c2ccc(Nc3ncc(F)c(-c4cc5nccc(C6CCCC6)c5s4)n3)nc2)CC1 [Example 37, 4-(7-Cyclopentylthieno[3,2-b]pyridin-2-yl)-5-fluoro-N-[5-(4-methylpiperazin-1-yl)pyridin-2-yl]pyrimidin-2-amine]	200 to 2000	20 to 200
Cc1c(-c2nc(Nc3ccc(N4CCOCC4)cn3)ncc2F)sc2c(C3CCCC3)ccnc12 [Example 38, 4-(7-Cyclopentyl-3-methylthieno[3,2-b]pyridin-2-yl)-5-fluoro-N-(5-morpholinopyridin-2-yl)pyrimidin-2-amine]	> 2000	20 to 200
COC1CCN(c2ccc(Nc3ncc(F)c(-c4cc5nccc(C6CCCC6)c5s4)n3)nc2)CC1 [Example 39, 4-(7-Cyclopentylthieno[3,2-b]pyridin-2-yl)-5-fluoro-N-[5-(4-methoxypiperidin-1-yl)pyridin-2-yl]pyrimidin-2-amine]	200 to 2000	20 to 200
Fc1cnc(Nc2ccc(N3CCOCC3)cn2)nc1-c1cc2nccc(C3CCCC3)c2s1 [Example 40, 4-(7-Cyclopentylthieno[3,2-b]pyridin-2-yl)-5-fluoro-N-(5-morpholinopyridin-2-yl)pyrimidin-2-amine]	> 2000	20 to 200
Fc1cnc(Nc2ccc(N3CCC(F)(F)C3)cn2)nc1-c1cc2nccc(C3CCCC3)c2s1 [Example 41, 4-(7-Cyclopentylthieno[3,2-b]pyridin-2-yl)-N-[5-(3,3-difluoropyrrolidin-1-yl)pyridin-2-yl]-5-fluoropyrimidin-2-amine]	> 2000	200 to 2000
Fc1cnc(Nc2ccc(N3CCOCC3)cn2)nc1-c1cc2c(C3CCCC3)ccnc2s1 [Example 42, 4-(4-Cyclopentylthieno[2,3-b]pyridin-2-yl)-5-fluoro-N-(5-morpholin-4-ylpyridin-2-yl)pyrimidin-2-amine]	> 2000	200 to 2000

Reference: patent US11685744B2, “CDK inhibitors and their use as pharmaceuticals” (Prelude Therapeutics, Incorporated, priority 2020, dated 2023)
